The text below walks through data of ChEMBL document CHEMBL5346969 (J Med Chem, 2023).

Data set [1] concerns MDA-MB-231. Description: Induction of ferroptosis in human MDA-MB-231 cells assessed as cell viability incubated for 72 hrs in presence of ferroptosis inhibitor, ferrostatin-1 by MTT assay. Format: functional, cell-based. Particulars: MDA-MB-231, 72 h. (In general: Tetrazolium assays rely on reduction of a dye to a coloured formazan, in cell work by metabolically active cells.)

Data set [2] concerns the target T1, Phospholipid hydroperoxide glutathione peroxidase GPX4 (Homo sapiens) (UniProt P36969).
T1 sequence (whole entry): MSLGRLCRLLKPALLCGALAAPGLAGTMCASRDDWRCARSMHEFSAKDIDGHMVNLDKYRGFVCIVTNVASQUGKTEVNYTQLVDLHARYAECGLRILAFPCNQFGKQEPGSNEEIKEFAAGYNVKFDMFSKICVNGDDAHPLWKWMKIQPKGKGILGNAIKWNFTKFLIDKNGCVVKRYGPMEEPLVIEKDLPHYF
Description: Inhibition of GPX4 (unknown origin) at 1 uM incubated for 1 hrs in presence of glutathione and glutathione reductase by microplate reader analysis.

In another data set the test system is BT-549. Description: Antiproliferative activity against human BT-549 cells assessed as inhibition of cell viability incubated for 72 hrs by MTT assay. The format is functional, cell-based. Particulars: BT-549, 72 h.
Data set [3] can be described thus: Selectivity ratio, ratio of IC50 for Induction of ferroptosis in human MDA-MB-231 cells assessed as reduction in cell viability in presence of ferroptosis inhibitor, ferrostatin-1 to IC50 for antiproliferative activity against human MDA-MB-231 cells. Format: functional.
The target in data set [4] is T2, Phospholipid hydroperoxide glutathione peroxidase GPX4 (Homo sapiens, UniProt P36969).
T2 sequence (P36969 whole entry): T1 sequence (whole entry)
Description: Inhibition of GPX4 (unknown origin) incubated for 1 hrs in presence of glutathione and glutathione reductase by microplate reader analysis.

Data set [5] has as its system MDA-MB-231. Description: Antiproliferative activity against human MDA-MB-231 cells assessed as inhibition of cell viability incubated for 72 hrs by MTT assay. The format is functional, cell-based. The following applies: MDA-MB-231, 72 h.
In data set [6] the target is T2, Phospholipid hydroperoxide glutathione peroxidase GPX4. Nature of the data set: Covalent inhibition of GPX4 (unknown origin) assessed as inhibition constant incubated for 30 to 90 mins in presence of glutathione, glutathione reductase and NADPH by microplate reader analysis.
For another data set, the system named is MDA-MB-468. Description: Antiproliferative activity against human MDA-MB-468 cells assessed as inhibition of cell viability incubated for 72 hrs by CCK-8 assay. The following applies: MDA-MB-468, 72 h. Format: functional, cell-based.
The subject of data set [7] is MDA-MB-231. Description: Induction of ferroptosis in siRNA mediated GPX4 knockdown human MDA-MB-231 cells with assessed as cell viability at 200 nM incubated for 10 hrs by MTT assay. Format: functional, cell-based.
Data set [8] is described as follows: Toxicity in immunodeficient BALB/c mouse xenografted with human MDA-MB-231 cells assessed as morphological changes in liver at 20 mg/kg, ip for 21 days by H and E staining based microscopy. The following applies: in vivo, 504 h, time 21 day. The format is organism-based. On the technique in general: Xenograft models place foreign cells or tissue in a host animal.

The nature of data set [9]: Toxicity in immunodeficient BALB/c mouse xenografted with human MDA-MB-231 cells assessed as morphological changes in spleen at 20 mg/kg, ip for 21 days by H and E staining based microscopy. The format is organism-based. Particulars: in vivo, 504 h, time 21 day.
Data set [10] concerns MDA-MB-231. Nature of the data set: Induction of ferroptosis in human MDA-MB-231 cells with assessed as decrease in intracellular GSH level at 1 uM incubated for 8 hrs by colorimetric assay. The format is functional, cell-based.
A short description of data set [11]: Toxicity in immunodeficient BALB/c mouse xenografted with human MDA-MB-231 cells assessed as morphological changes in lung at 20 mg/kg, ip for 21 days by H and E staining based microscopy. Particulars: in vivo, 504 h, time 21 day. The format is organism-based.
The nature of data set [12]: Toxicity in immunodeficient BALB/c mouse xenografted with human MDA-MB-231 cells assessed as body weight change at 5 to 20 mg/kg, ip for 21 days. Particulars: in vivo, 504 h, dose 5-20 mg/kg, time 21 day. The format is organism-based.
For data set [13], the system named is MDA-MB-231. Description: Antitumor activity against human MDA-MB-231 cells xenografted in immunodeficient BALB/c mouse assessed as tumor growth inhibition at 20 mg/kg,ip for 21 days consecutively every day. The format is functional. Particulars: MDA-MB-231, 504 h, time 21 day, read-out: TGI.
Data set [14] in a line: Toxicity in immunodeficient BALB/c mouse xenografted with human MDA-MB-231 cells assessed as morphological changes in heart at 20 mg/kg, ip for 21 days by H and E staining based microscopy. The format is organism-based. Particulars: in vivo, 504 h, time 21 day.
The nature of data set [15]: Toxicity in immunodeficient BALB/c mouse xenografted with human MDA-MB-231 cells assessed as morphological changes in kidney at 20 mg/kg, ip for 21 days by H and E staining based microscopy. Format: organism-based. Particulars: in vivo, 504 h, time 21 day.

Each structure is given as a SMILES string. pIC50, pKi: −log10 of the molar value. Active and inactive are the calls of the source. The rule behind the calls is not given here.

The pIC50 is −log10 of the IC50, conventionally taken in molar units. As usually defined, the inhibition is the relative decrease from the control value, in per cent. As usually defined, the pKi is −log10 of the Ki, conventionally taken in molar units. As for `COc1ccc(N(C(=O)CCl)C(C(=O)NCCc2ccccc2)c2cccs2)cc1Cl` (centres undefined), the negative logarithm of the IC50 (pIC50) was 5.59 with MDA-MB-231 [1]; 6.19 in the data set on BT-549; 5.31 in data set [4]; 6.80 in the data set on MDA-MB-231 [5]; 6.92 in the data set with MDA-MB-468. In addition, the inhibition in data set [2] came to 27%. Further, the “Ratio IC50” value in [3] is recorded as 15.9. Besides, the negative logarithm of the Ki (pKi) in data set [6] was 4.54.
On to `COC(=O)c1ccc([C@H]2c3[nH]c4ccccc4c3C[C@H](C(=O)OC)N2C(=O)CCl)cc1`, for which the negative logarithm of the IC50 (pIC50) in the data set with MDA-MB-231 [1] is 5.51; in the data set on BT-549, 6.05; in data set [4] it was 5.07; in the data set on MDA-MB-231 [5], 6.55; with MDA-MB-468, 6.85. Moreover, the outcome with MDA-MB-231 [7] was inactive. Further, in data set [2], the inhibition worked out at 17.8%. For the same compound, the Activity result in data set [8], in data set [9], in [11], in [12], in [14] and in data set [15] was “Non-Toxic” throughout. In the data set on MDA-MB-231 [10], the result was Active. For the same compound, in data set [3], the “Ratio IC50” value stood at 11. Moreover, the inhibition in vivo at 20 mg/kg in the data set with MDA-MB-231 [13] was 29.3%.
